Patent US6630490B2, “Methods for treatment of disease-induced peripheral neuropathy and related conditions” (NeoTherapeutics, Inc., priority 2000, dated 2003)
Values belong to the molecule of their own block, whether it stands above or below them.

Assays:
[1] = system: rats with isolated mDCN-T13 field receiving anti-NGF; experiment: Sprouting blocked by anti-NGF treatment, rescue by AIT-082; type: in vivo, rat
Description: (§1) “Isolation” of sensory fields: This procedure, the initial step in the study of collateral sprouting and was done as described in Diamond et al. (1992). Its purpose was to isolate the cutaneous innervation territory, or field, of a selected nerve within a vast surround of denervated back skin. The nerve used was the medial branch of the left dorsal cutaneous nerve (DCN), at segmental level T13 (mDCN-T13). The isolation of its field was achieved by surgically eliminating on the left side the 4 DCNs immediately rostral and caudal to DCN-T13 (respectively T9-T12 and L1-L4), the lateral branch of DCN-T13, and the 4 lateral cutaneous nerves supplying the flank skin adjacent to the DCN-T13 territory.
Mapping of sensory fields: As described in Nixon et al. (1984) and Doucette and Diamond (1987), the borders of the isolated mechano-nociceptive and heat-nociceptive fields, subserved respectively by the Aδ and C fibers mDCN-T13, were determined by systematically applying across the skin forceps pinches (for mechano-nociception) and brief applications of a 60° C. heat probe (for heat-nociception); the presence of nociceptive endings is indicated during these procedures when the stimuli elicit the “CTM reflex” response, a contraction of the underlying cutaneus trunci muscle, which causes a characteristic and easily recognized skin twitch (Theriault and Diamond, 1988). […]

[2] = system: unoperated rats, mDCN-T13 heat, pinch and touch fields; experiment: Nociceptive nerve sprouting in normally innervated skin (mDCN-T13 field mapping); type: in vivo, rat
Description: as §1
(§2) Mapping of sensory fields: As described in Nixon et al. (1984) and Doucette and Diamond (1987), the borders of the isolated mechano-nociceptive and heat-nociceptive fields, subserved respectively by the Aδ and C fibers mDCN-T13, were determined by systematically applying across the skin forceps pinches (for mechano-nociception) and brief applications of a 60° C. heat probe (for heat-nociception); the presence of nociceptive endings is indicated during these procedures when the stimuli elicit the “CTM reflex” response, a contraction of the underlying cutaneus trunci muscle, which causes a characteristic and easily recognized skin twitch (Theriault and Diamond, 1988). The low-threshold (“touch”) fields were measured electrophysiologically as described by Jackson and Diamond (1984). The DCN-T13 was placed across bipolar platinum electrodes that fed into a preamplifier and thence to an oscilloscope and audio amplifier. Brushing innervated skin with a fine bristle generates impulses in the large myelinated Aβ axons, producing audible responses that disappear abruptly as the bristle crosses into denervated territory. The areas of the cutaneous territories of the three sensory modalities studied (“pinch”, “heat” and “touch”) were measured using the MCID image analysis system (Imaging Research, Inc., St. Catharines, Ontario, Canada). […]

unoperated animals [3] = experiment: Detection of hyperalgesia; type: in vivo, rat
Protocol: Detection of hyperalgesia: Nociceptive responses were studied in lightly restrained animals as described in […] et al. (1999), using the latency of foot withdrawal from a 49° C. footbath, the temperature of the footbath at which withdrawal was initiated, and the heat thresholds for evoking the “CTM” reflex from back skin (see above). Hyperalgesia is defined here as a lowering of the threshold of a nociceptive stimulus required to produce a reflex response, and/or a reduction in the latency of that response. Administration of AIT-082: AIT-082 was obtained from NeoTherapeutics Inc., Irvine, Calif., USA. A 50 mg/ml solution in sterile 0.9% NaCl was made up freshly every three days. The standard administration protocol was a daily i.p. injection of 50 mg/kg AIT-082.

[4] = system: control and diabetic rats; experiment: Formalin test in control and diabetic rats; type: in vivo, rat
Protocol: (§3) Induction of diabetes: Female, adult, Sprague-Dawley rats (250-275 g) were fasted overnight prior to the intraperitoneal injection of a freshly made solution of streptozotocin in 0.9% saline to deliver a dose of 50 mg/kg body weight. Food was restored and animals left for 3 days before determination of glucose levels in a blood sample obtained by tail prick. Animals with blood glucose levels >15 mmol/l were considered diabetic and used in the study. Treatment with the AIT-082 began on the day that hyperglycemia was confirmed. […] If they presented as diabetic then they were added to the study, if not they were omitted.
Formalin test: Rats were restrained manually and formalin (50 μl of 0.2% solution) injected sub-dermally into the hindpaw dorsum. Rats were then placed in an observation chamber and flinching behaviors counted in 1 minute blocks every 5 minutes for 1 hour.

[5] = system: rats with isolated mDCN-T13 field; experiment: Collateral sprouting of nociceptive nerves into adjacent denervated skin; type: in vivo, rat
Description: as §1, §2

[6] = system: control and diabetic rats, sciatic nerve; experiment: Sensory nerve conduction velocity (SNCV) in control and diabetic rats; type: in vivo, rat
Protocol: as §3
Nerve Conduction Velocity (NCV): Rats were anesthetized with halothane (4% in O2 for induction, 2-3% for maintenance) and the sciatic nerve exposed via an incision in the flank followed by separation of underlying musculature by blunt dissection. A thermistor probe was placed adjacent to the nerve and the wound closed with a skin clamp and a second, rectal, probe was positioned. Nerve and rectal temperature was maintained at 37° C. by a heating lamp and thermal pad connected to a temperature regulator and the thermistor probes. […] The distance between the two sites of stimulation was measured using surface calipers and NCV calculated as […]. NCV measurements were made in triplicate and the median used to represent the NCV. The thermistor probes were removed, the skin incision closed with wound clips and coated with Betadine and the animal withdrawn from halothane and monitored until it recovers consciousness. Rats were then returned to their cages with free access to food and water.

[7] = system: control and diabetic rats; experiment: Thermal response latency in control and diabetic rats; type: in vivo, rat; conditions: for thermal hyperalgesia (week 4) and hypoalgesia (week 8): diabetic rats
Protocol: as §3
Thermal response latency: Rats were placed in an observation chamber on the surface (floor temperature 30° C.) of a modified Hargreaves Apparatus (UARD, San Diego Calif.) and allowed to acclimate for 5 minutes. For measurement of thermal response latency, a heat source (delivering 4.5 amps to give a paw withdrawal latency of approximately 10 seconds in control rats) was maneuvered underneath the hind paw. The heat source was turned on manually and a stop clock activated until it shut off automatically when the paw was moved (24 sec cut off time). The procedure was repeated 4 times on the same paw at 5 minute intervals and the median of values 2-4 used to represent the thermal response latency.

[8] = system: unoperated rats, mDCN-T13 heat, pinch and touch fields; conditions: systemically injected NGF; Diamond et al., 1992; Pertens et al., 1999; cited from earlier work
unoperated animals [9] = conditions: rat, in vivo; cited from earlier work
[10] = unoperated rats, 50 mg/kg daily for 20 days, versus saline

hyperalgesia, threshold temperature for foot withdrawal from a hot probe (unoperated animals [3]; FIG. 4(a)): does not cause hyperalgesia
hyperalgesia, threshold temperature for evoking the CTM reflex in dorsal skin (unoperated animals [3]; FIG. 4(b)): does not cause hyperalgesia
hyperalgesia, latency of foot withdrawal from a 49° C. hot bath (unoperated animals [3]; FIG. 4(c)): does not cause hyperalgesia
Molecule: O=C(CCn1cnc2c(=O)[nH]cnc21)Nc1ccc(C(=O)O)cc1 [AIT-082, N-4-carboxyphenyl-3-(6-oxohydropurin-9-yl) propanamide]
sprouting under supra-threshold ("high") anti-NGF treatment ([1]; daily AIT-082 plus about 5-fold anti-NGF dose, fields after 22 days): sprouting continued to be absent
sprouting under threshold ("low") anti-NGF treatment ([1]; daily AIT-082 plus daily anti-NGF, pinch and heat fields after 22 days): totally rescued the sprouting
limited dose-response study for inducing nociceptive sprouting ([2]; daily i.p. injection of 50 mg/kg, not illustrated): well above threshold for inducing nociceptive sprouting, but below saturating levels
nociceptive fields, pinch and heat (area of innervation) [2, 10]: expanded significantly
touch fields (NGF-insensitive Aβ fibers) [2, 10]: unaffected
hyperalgesia (a number of recognized tests) (unoperated animals [3]; standard AIT-082 administration, at any time during or following treatment): failed to provide any evidence for the occurrence of this phenomenon
formalin-evoked flinching ([4]; control and diabetic rats): dose-dependently reduced
formalin-evoked hyperalgesia by phase ([4]; diabetic rats): suppression of hyperalgesia was notable in phases 1, Q, and 2a
amount by which field expansions in the AIT-082 sprouting group exceeded controls ([5]; after 20 days of treatment, comparison from raw data of FIGS. 1 and 2): approximately equal to the expansion in field areas induced in unoperated animals
expansion of nociceptive fields into adjacent denervated skin relative to control group ([5]; daily AIT-082 after field isolation, mapping every 3 or 4 days): increased expansion of the nociceptive fields
time at which increased field expansion became apparent ([5]; daily AIT-082 versus saline): about 13 days post-isolation
SNCV ([6]; control rats): no effect
SNCV deficit ([6]; diabetic rats, week 4): no effect
SNCV ([6]; diabetic rats, week 8): dose-dependent improvement
thermal response latency ([7]; control rats): without effect
thermal hyperalgesia (week 4) and hypoalgesia (week 8) [7]: dose-dependently prevented both hyperalgesia and hypoalgesia
thermal hyperalgesia (week 4) and hypoalgesia (week 8) ([7]; high dose 100 mg/kg): completely prevented both hyperalgesia at week 4 and hypoalgesia at week 8

Molecule: NGF: nerve growth factor, exogenous, systemically injected
sprouting in normal skin [8]: induces sprouting in normal skin
hyperalgesia (unoperated animals [9]): causes hyperalgesia
